Tests used:
[1] = Plasma stability of cannabidiol prodrugs (bioconversion to parent drug); format: in vitro ADME; settings: Table 20, di-prodrug in plasma; for % mono-prodrug at time (h): mono-prodrug formed
Description: An approximated 1 mg/mL stock solution of each prodrug was prepared in 100 μL of ethanol and 900 μL of acetonitrile. Ten (10) μL of stock was spiked into 1 mL of plasma and vortexed. The samples were kept sealed in an amber vial and samples were obtained to analyze for bioconversion to parent drug.

human abdominal skin = assay: In vitro human skin permeation and skin disposition, flow-through diffusion cells (Example 1); format: in vitro ADME
Description: Flow through diffusion cells were used for the permeation studies. HEPES-buffered Hanks' balanced salts containing 40% (polyethylene glycol) PEG 400 with gentamicin was used for the receiver compartment. Donor solution was comprised of either 100% propylene glycol (PG) solution or a rubbed in gel formulation. […] Drug accumulation in the skin after a 24 or 36 h diffusion experiment was determined as μmol/g wet tissue weight.
The skin samples used in the following experiments were obtained from abdominal reduction surgery and dermatomed to a thickness of approximately 200 μm. The skin samples used herein were frozen at −20° C. for less than six months.
1 L of receiver fluid was prepared by measuring 1 L of nanopure water into a graduated cylinder. 90% of the water was added to an Erlenmeyer flask. Hanks' salts (1 bottle) were added to the water along with 5.96 g of HEPES and 0.35 g of sodium bicarbonate. The pH of the solution was adjusted with 1 N sodium hydroxide solution to pH 7.4. The remaining water was added and the receiver fluid was filtered through a 0.2μ filter (Millipore, Billerica, Mass.). 50 mg of gentamicin was added to the filtered receiver fluid and 400 mL of the receiver fluid was removed and replaced with 400 mL of PEG 400.
Two different formulations were used for charging the donor compartment. Drugs were made up in either 100% PG or a gel formulation. For the PG solution, approximately 50-120 mg of the appropriate drug was weighed into a glass silanized culture tube. The gel formulation resulted from the mixing of absolute ethanol, nanopure water, IPM, Carbopol® 980, 0.1 N aqueous sodium hydroxide solution and the respective drug.
Dermatomed skin harvested from abdominoplasty, stored at −20° C., was used for the experiments. A PermeGear flow-through (In-Line, Riegelsville, Pa.) diffusion cell system was used for the skin permeation studies.
Diffusion cells were kept at 32° C. with a circulating water bath. Human epidermal skin was arranged in the diffusion cell with stratum corneum (upper layer of skin) facing the donor compartment. Permeation area of the skin was 0.95 cm^2. Data was collected from a human skin donor with three to four diffusion cells per treatment.
Receiver solution was HEPES-buffered Hanks' balanced salts with gentamicin containing 40% PEG 400 at a pH of 7.4 and flow rate was adjusted to 0.8 mL/h. Each cell was charged with 0.050 mL of the respective drug formulation (donor solution) or with 0.035 mL of gel formulation which was rubbed into the skin for 15 sec with a Teflon coated rod. The formulation was applied to ensure complete coverage. Diffusion cells were covered with a cap for the duration of the study.
Samples were collected into scintillation vials in 3 h increments for either 24 h or 36 h. All the samples were stored at 4° C. until extracted. An aliquot (0.5 mL) of the diffusion sample was placed into a silanized HPLC vial and 0.5 mL of acetonitrile was added to the sample, capped and vortexed.
At the end of the experiment, the skin tissue was removed from the diffusion cell, rinsed with nanopure water, and blotted dry with a paper towel. The skin was tape stripped twice using book tape (Scotch™, 3M, St. Paul, Minn.) to remove drug formulation adhering to the tissue surface. The area of skin in contact with the drug was cut out, chopped up and placed in a pre-weighed scintillation vial. Ten mL of acetonitrile was added to the vial and drug was extracted from the skin by shaking at room temperature overnight. The following day a 0.1 mL aliquot was removed and diluted with an additional 0.9 mL of acetonitrile. The diluted sample was added to the silanized HPLC vial for analysis.
At the end of the experiment, a 0.01 mL aliquot of the PG donor solution was removed and added to a scintillation vial containing 10 mL of acetonitrile. The vials were vortexed and then sonicated for 15 min. An aliquot of 1 mL was removed and transferred into a silanized HPLC vial for analysis.

[2] = Table 11, in gel formulation, CBD from applied prodrug
[3] = Table 11, in gel formulation, as applied compound (CBD or intact prodrug)
[4] = Table 11, in gel formulation, prodrug applied, as total CBD equivalents (cannabidiol and/or prodrug)
[5] = Table 12, in gel formulation, CBD from applied prodrug
[6] = Table 12, in gel formulation, as applied compound (CBD or intact prodrug)
[7] = Table 12, in gel formulation, prodrug applied, as total CBD equivalents
[8] = Table 13, in propylene glycol, 36 h, CBD from applied prodrug
[9] = Table 13, in propylene glycol, 36 h, as applied compound (CBD or intact prodrug)
[10] = Table 13, in propylene glycol, 36 h, prodrug applied, as total CBD equivalents
[11] = Table 13, in propylene glycol, CBD from applied prodrug
[12] = Table 13, in propylene glycol, as applied compound (CBD or intact prodrug)
[13] = Table 13, in propylene glycol, prodrug applied, as total CBD equivalents
[14] = Table 3, in propylene glycol, CBD high conc.
[15] = Table 3, in propylene glycol, CBD low conc.
[16] = Table 4, in propylene glycol, CBD high conc.
[17] = Table 4, in propylene glycol, CBD low conc.
[18] = Table 5, in propylene glycol, CBD high conc.
[19] = Table 5, in propylene glycol, CBD low conc.
[20] = Table 14, in propylene glycol, as applied compound (CBD or intact prodrug)

## C=C(C)C1CCC(C)=CC1c1c(OC(=O)CN(C)C)cc(CCCCC)cc1OC(=O)CN(C)C (centres unmarked) [ALL00105, CBD bis(N,N-dimethylglycinate)]
[1]; 2 h
  % mono-prodrug at time (h): 0%
  % Di-prodrug at time (h): 92%
[1]; 4 h
  % mono-prodrug at time (h): 0%
  % Di-prodrug at time (h): 88%
[1]; 22 h
  % mono-prodrug at time (h): 0%
  % Di-prodrug at time (h): 58%
[1]; 24 h
  % mono-prodrug at time (h): 0%
  % Di-prodrug at time (h): 55%
[1]; 0 h
  % Di-prodrug at time (h): 100%
Human abdominal skin; Example 1
  form in which the prodrug permeated through the human skin: permeated primarily as intact prodrug
Human abdominal skin; [2]
  24 h cumulative amt: 4.1 ± 1.5 nmol
  24 h skin conc: 2.5 ± 2.1 µmol/g
  Flux: 0.3 ± 0.02 nmol/cm^2/h
  Lag time: 0.8 ± 0.4 h
Human abdominal skin; [3]
  24 h cumulative amt: 66.8 ± 9.0 nmol
  24 h skin conc: 82.1 ± 58.9 µmol/g
  Flux: 2.9 ± 0.5 nmol/cm^2/h
  Lag time: 7.9 ± 3.3 h
Human abdominal skin; [4]
  24 h cumulative amt: 76.5 ± 7.9 nmol
  24 h skin conc: 84.5 ± 60.7 µmol/g
  Flux: 3.3 ± 0.7 nmol/cm^2/h
  Lag time: 1.2 ± 0.1 h
Human abdominal skin; [5]
  24 h cumulative amt: 1.1 ± 0.02 nmol
  24 h skin conc: 2.2 ± 2.1 µmol/g
  Flux: 0.06 ± 0.02 nmol/cm^2/h
  Lag time: 1.0 ± 0.6 h
Human abdominal skin; [6]
  24 h cumulative amt: 7.3 ± 0.03 nmol
  24 h skin conc: 27.5 ± 7.4 µmol/g
  Flux: 0.37 ± 0.01 nmol/cm^2/h
  Lag time: 3.9 ± 4.8 h
Human abdominal skin; [7]
  24 h cumulative amt: 8.9 ± 0.04 nmol
  24 h skin conc: 29.7 ± 9.1 µmol/g
  Flux: 0.41 ± 0.03 nmol/cm^2/h
  Lag time: 0.9 ± 1.2 h
Human abdominal skin; [8]
  Flux: 1.4 ± 0.2 nmol/cm^2/h
  Lag time: 12.6 ± 1.3 h
Human abdominal skin; [9]
  Flux: 0.5 ± 0.01 nmol/cm^2/h
  Lag time: 7.5 ± 0.0 h
Human abdominal skin; [10]
  Flux: 1.9 ± 0.2 nmol/cm^2/h
  Lag time: 10.0 ± 2.9 h
Human abdominal skin; [11]
  36 h cumulative amt: 32.6 ± 3.0 nmol
  36 h skin conc.: 2.8 ± 3.8 µmol/g
Human abdominal skin; [12]
  36 h cumulative amt: 14.7 ± 3.2 nmol
  36 h skin conc.: 8.8 ± 0.0 µmol/g
Human abdominal skin; [13]
  36 h cumulative amt: 47.2 ± 0.1 nmol
  36 h skin conc.: 7.2 ± 10.1 µmol/g
Human abdominal skin; gel formulation
  cumulative amount of total cannabidiol equivalents delivered, compared to cannabidiol: 3.1-5.9 fold
Human abdominal skin; gel formulation studies
  decrease of lag time of total cannabidiol compared to the parent drug: 7 to 8 h
Human abdominal skin; mean between the two gel formulation experiments
  mean flux enhancement: 2.5
Human abdominal skin; propylene glycol donor solution
  enhancement with the propylene glycol donor solution: did not show any enhancement

## C=C(C)[C@@H]1CCC(C)=C[C@H]1c1c(O)cc(CCCCC)cc1O [cannabidiol, reference compound]
Human abdominal skin; Table 2, in propylene glycol
  24 h cumulative amt: 222.7 ± 74.0 nmol
  24 h skin conc: 190.8 ± 10.7 µmol/g
  Flux: 10.4 ± 2.0 nmol/cm^2/h
Human abdominal skin; [14]
  24 h cumulative amt: 89.2 ± 15.0 nmol
  24 h skin conc: 223.1 ± 75.3 µmol/g
  Flux: 7.8 ± 1.1 nmol/cm^2/h
Human abdominal skin; [15]
  24 h cumulative amt: 50.1 ± 28.1 nmol
  24 h skin conc: 26.3 ± 14.1 µmol/g
  Flux: 4.5 ± 2.5 nmol/cm^2/h
Human abdominal skin; [16]
  24 h cumulative amt: 110.4 ± 18.9 nmol
  24 h skin conc: 167.6 ± 76.7 µmol/g
  Flux: 8.5 ± 2.4 nmol/cm^2/h
Human abdominal skin; [17]
  24 h cumulative amt: 63.5 ± 47.5 nmol
  24 h skin conc: 112.5 ± 61.8 µmol/g
  Flux: 6.0 ± 3.3 nmol/cm^2/h
Human abdominal skin; [18]
  24 h cumulative amt: 42.4 ± 10.7 nmol
  24 h skin conc: 104.9 ± 51.0 µmol/g
  Flux: 3.9 ± 0.0 nmol/cm^2/h
Human abdominal skin; [19]
  24 h cumulative amt: 56.9 ± 39.4 nmol
  24 h skin conc: 75.3 ± 33.1 µmol/g
  Flux: 5.7 ± 3.5 nmol/cm^2/h
Human abdominal skin; Table 6, in propylene glycol
  24 h cumulative amt: 27.5 ± 32.5 nmol
  24 h skin conc: 49.2 ± 15.2 µmol/g
  Flux: 4.3 ± 2.4 nmol/cm^2/h
Human abdominal skin; Table 7, in propylene glycol
  36 h cumulative amt: 15.7 ± 5.4 nmol
  36 h skin conc.: 44.1 ± 15.5 µmol/g
Human abdominal skin; Table 7, in propylene glycol, 36 h experiment
  Flux: 1.0 ± 0.7 nmol/cm^2/h
Human abdominal skin; Table 8, in gel formulation
  36 h cumulative amt: 52.0 ± 42.7 nmol
  36 h skin conc.: 28.4 ± 8.8 µmol/g
Human abdominal skin; Table 8, in gel formulation, 36 h experiment
  Flux: 2.0 ± 2.3 nmol/cm^2/h
Human abdominal skin; Table 9, in gel formulation
  24 h cumulative amt: 1.9 ± 1.3 nmol
  Flux: 0.10 ± 0.06 nmol/cm^2/h
Human abdominal skin; Table 9, in gel formulation, as applied compound (CBD, or PD = intact prodrug)
  24 h skin conc: 24.6 ± 3.6 µmol/g
Human abdominal skin; Table 10, in propylene glycol
  24 h cumulative amt: 164.5 ± 34.1 nmol
  Flux: 8.0 ± 0.9 nmol/cm^2/h
Human abdominal skin; Table 10, in propylene glycol, as applied compound (CBD, or PD = intact prodrug)
  24 h skin conc: 85.8 ± 24.3 µmol/g
Human abdominal skin; [3]
  24 h cumulative amt: 13.3 ± 2.6 nmol
  24 h skin conc: 29.0 ± 10.2 µmol/g
  Flux: 1.0 ± 0.1 nmol/cm^2/h
Human abdominal skin; [6]
  24 h cumulative amt: 2.9 ± 0.1 nmol
  24 h skin conc: 88.4 ± 36.3 µmol/g
  Flux: 0.24 ± 0.003 nmol/cm^2/h
Human abdominal skin; [9]
  Flux: 4.2 ± 0.0 nmol/cm^2/h
Human abdominal skin; [12]
  36 h cumulative amt: 94.5 ± 0.0 nmol
  36 h skin conc.: 39.4 ± 0.0 µmol/g
Human abdominal skin; Table 14, in propylene glycol, 36 h, as applied compound (CBD or intact prodrug)
  Flux: 8.4 ± 2.4 nmol/cm^2/h
Human abdominal skin; [20]
  36 h cumulative amt: 93.6 ± 38.0 nmol
  36 h skin conc.: 92.9 ± 4.8 µmol/g
